Measured values from patent US4146610A, “Antibiotics MM13902” (Beecham Group Limited, priority 1974, dated 1979).
Counter-ions that a name gives are not always drawn.

What was measured:
Klebsiella aerogenes = assay: Antibiotic activity in arbitrary units; assay type: cell-based
Experimental: The material produced above was arbitrarily assigned an activity of 340 l/ml. Assays were determined as described in Description 3.

Stability = assay type: physicochemical; conditions: unsalted acid form
urease = assay: Enzyme inhibition (selectivity); assay type: biochemical; conditions: at concentrations in excess of those required to inhibit the β-lactamase of E. coli
dopa decarboxylase = assay: Enzyme inhibition (selectivity); assay type: biochemical; conditions: at concentrations in excess of those required to inhibit the β-lactamase of E. coli
monoamine oxidase = assay: Enzyme inhibition (selectivity); assay type: biochemical; conditions: at concentrations in excess of those required to inhibit the β-lactamase of E. coli
[1] = tested on: β-lactamases produced by Escherichia coli, Klebsiella aerogenes and Staphylococcus aureus; assay: Inhibition of β-lactamases of various species; assay type: biochemical
tyrpsin = assay: Enzyme inhibition (selectivity); assay type: biochemical; conditions: at concentrations in excess of those required to inhibit the β-lactamase of E. coli
chymotrypsin = assay: Enzyme inhibition (selectivity); assay type: biochemical; conditions: at concentrations in excess of those required to inhibit the β-lactamase of E. coli
carbonic anhydrase = assay: Enzyme inhibition (selectivity); assay type: biochemical; conditions: at concentrations in excess of those required to inhibit the β-lactamase of E. coli

For `CC(=O)N/C=C/SC1=C(C(=O)O)N2C(=O)C(C(C)OS(=O)(=O)O)C2C1` (stereo not shown) [di-sodium salt of MM 13902], the activity (Klebsiella aerogenes; yellowish powder after cellulose chromatography) was 73,000 units/mg.

For `CC(=O)N/C=C/SC1=C(C(=O)O)N2C(=O)C(C(C)OS(=O)(=O)O)C2C1` (stereo not shown) [MM 13902], the activity (Klebsiella aerogenes; partially purified salt, after XAD 4) was 37,000 units/mg and the stability (Stability) was “tends to be unstable”.

With `CC(=O)N/C=C/[S+]([O-])C1=C(C(=O)O)N2C(=O)C(C(C)OS(=O)(=O)O)C2C1` (stereo not shown) [MM 4550A] the enzyme inhibition (urease) was “does not inhibit”, the enzyme inhibition (dopa decarboxylase) was “does not inhibit” and the enzyme inhibition (monoamine oxidase) was “does not inhibit”. For the same compound, the “enzyme inhibitory activity against β-lactamases” value [1] was “possesses enzyme inhibitory activity”, the enzyme inhibition (tyrpsin) was “does not inhibit” and the enzyme inhibition (chymotrypsin) was “does not inhibit”. For the same compound, the enzyme inhibition (carbonic anhydrase) was “does not inhibit”.
